Assay results taken from patent US20050042300A1, “Use of colostrinin, constituent peptides thereof, and analogs thereof as inhibitors of apoptosis and other cellular damage” (priority 2002, published 2005).

Columns and labels:
Format in all cases: cell-based
JNK = assay: 4HNE-induced JNK phosphorylation, Western blot with anti-phospho-(Thr-183/Tyr-185) JNK antibody; settings: PC12 cells
Experimental: Western blot analysis: PC12 cells were plated at 7×10^6 cells/T75 flask. After exposure to 4HNE, colostrinin or their combination, cells were collected and lysed in 50 millimolar (mM) Tris, 5 mM EDTA, 150 mM NaCI, 0.5% NP-40, 10% glycerol and protease inhibitor cocktail (supplemented with 1 mM Na3VO4, 2 mM EDTA, 1 mM phenylmethylsulfonyl fluoride). Lysates were centrifuged at 14,000 g for 10 minutes (min) (4° C.) and 40 μg of protein was fractionated on a 10% SDS-polyacrylamide gel and transferred to protein-optimized membranes (Amersham, Inc.). p53 was detected using specific antibody (DO1; Santa Cruz Biotechnology, Inc.) at a dilution of 1:300. Adducts were detected using an antibody to HNE-protein adducts (Pharmingen, Inc.) at a dilution of 1:500. The anti-phospho-JNK antibody (New England Biolabs, Inc., Beverly, Mass.) was raised against a synthetic phosphopeptide (SFMMT*PY*VVTRYYR) corresponding to residues 179-193 of JNK. […]
The effect of CLN on 4HNE-induced activation of JNK in PC12 cells was investigated. The activation of JNK was monitored by Western blot analysis using a highly specific anti-phospho- (Thr-183/Tyr-185) JNK antibody (Materials and Methods).

SH-SY5Y cells = assay: Protection against retinoic acid toxicity in SH-SY5Y cells, graded under the microscope; settings: for DIFFERENTIATION: Retinoic Acid 20 μM (Day 1) alone
Experimental: Retinoic Acid was left on the plate for the duration of the experiment or until washed off. Colostrinin was added to the plate at the indicated doses. When added on Day 1, it was present during the entire experiment. When added on Day 5, it was incubated on the plate for 30 minutes at 37° C. and then removed. The wells were washed twice with PBS before adding β-Amyloid. Cultures were then observed under the microscope and graded.

[1] = tested on: 4HNE-protein adducts in PC12 cells; assay: 4HNE-protein adduct formation, immunocytochemistry / fluorescent microscopy
Source text: Cell cultures: Pheochromocytoma (PC12) cells were provided by Dr. Regino Perez-Polo (University of Texas Medical Branch, Department of Human Biological Chemistry and Genetics) and maintained in EMEM supplemented with 10% fetal bovine serum, penicillin (100 IU/ml) and streptomycin (100 micrograms per milliliter (μg/ml)). Exponentially growing populations of PC12 cells were sub-cultured and used for all experiments. Immunocytochemistry: […] Cells were permeabilized by 0.3% Triton X-100, washed in PBS then incubated with primary antibody in PBS containing 0.05% Tween 20 (PBS-T). After washing 3 times in PBS-T, FITC-labeled anti-rabbit IgG (Santa Cruz Biotechnology Inc.) was added. Cells were washed (5 times, for 10 min) with PBS-T and mounted on microscope slides in anti-fade solution (Dako, Inc.). Images of cellular immunofluorescence were acquired using a NIKON Eclipse TE300 scanning microscope. Fluorescent microscopy and Western blot analysis was undertaken to investigate the extent of 4HNE protein-adduct formation in cultures of PC12 cells in the presence of CLN. Cells were pretreated with CLN or LAH in the presence or absence of 4HNE and then analyzed for the formation of 4HNE-protein adducts.

[2] = tested on: 4HNE-protein adducts in PC12 cells; assay: 4HNE-protein adduct levels, Western blot analysis; settings: 4HNE alone 25, 12.5, 6.2 nM
Experimental: (§1) Western blot analysis: PC12 cells were plated at 7×10^6 cells/T75 flask. After exposure to 4HNE, colostrinin or their combination, cells were collected and lysed in 50 millimolar (mM) Tris, 5 mM EDTA, 150 mM NaCI, 0.5% NP-40, 10% glycerol and protease inhibitor cocktail (supplemented with 1 mM Na3VO4, 2 mM EDTA, 1 mM phenylmethylsulfonyl fluoride). Lysates were centrifuged at 14,000 g for 10 minutes (min) (4° C.) and 40 μg of protein was fractionated on a 10% SDS-polyacrylamide gel and transferred to protein-optimized membranes (Amersham, Inc.). p53 was detected using specific antibody (DO1; Santa Cruz Biotechnology, Inc.) at a dilution of 1:300. Adducts were detected using an antibody to HNE-protein adducts (Pharmingen, Inc.) at a dilution of 1:500. The anti-phospho-JNK antibody (New England Biolabs, Inc., Beverly, Mass.) was raised against a synthetic phosphopeptide (SFMMT*PY*VVTRYYR) corresponding to residues 179-193 of JNK. For visualization of primary antibody binding, all blots were incubated with horseradish peroxidase-conjugated secondary antibody (Amersham, Inc.) at a dilution of 1:2000, followed by chemiluminescence detection (Amersham, Inc.) and autoradiography.
To confirm the results generated by immunochemistry, Western blot analysis was used to investigate changes in 4HNE-protein adduct levels in cells treated with 4HNE alone or CLN plus 4HNE.

[3] = tested on: intracellular GSH levels in PC12 cells; assay: Intracellular glutathione (GSH), o-phthalaldehyde fluorescence
Experimental: Measurement of glutathione (GSH): In brief, PC12 cells were mock- or pre-treated with CLN or lactalbumin hydrolysate (LAH), both in 10 μg/ml concentration and then exposed to 4HNE (25 nM). PBS-washed (twice) cells were then extracted with 25% (w/v) metaphosphoric acid solution containing 5 mM EDTA. After ultracentrifugation (105,000 g for 30 min), 100 μl of 100 mM phosphate solution (pH 8.0) containing 5 mM EDTA and 10 μl of o-phthalaldehyde OPA(OPD; Molecular Probes, Inc.) was added to the supernatant, and the fluorescence intensity at 420 nm determined with excitation set at 350 nm (A. P. Senft et al., Anal Biochem., 280:80-86 (2000)).
To investigate whether the anti-oxidant effect of CLN was due to protection of intracellular GSH levels, PC12 cells were pre-treated (with CLN or LAH) and exposed to 4HNE, as described above, and changes in GSH levels were determined fluorimetrically. […] OPA (o-phthalaldehyde or phthalic dicarboxaldehyde) is highly fluorescent when it is conjugated to GSH (A. P. Senft et al., Anal Biochem., 280:80-86 (2000)).

[4] = tested on: GSH extrusion from PC12 cells; assay: Reduced GSH in extracellular fluid (GSH extrusion), OPA-GSH fluorescence; settings: 4HNE, relative to CLN- or mock-treated cells, data not shown
Experimental: To determine whether the loss of intracellular GSH was due to it's extrusion from the cells or oxidation, the level of reduced GSH in the extra-cellular fluid was evaluated.

p53 = assay: 4HNE-induced activation of p53, Western blot; settings: PC12 cells; 4HNE alone
Experimental: as §1
Whether CLN could modulate p53 levels after 4HNE exposure was also investigated.

PC12 cells = assay: 4HNE-induced apoptosis, annexin V-PE / 7-AAD flow cytometry
Source text: Apoptosis is a specific mode of cell death recognized by a characteristic pattern of morphological, biochemical, and molecular changes. Currently the hallmark of apoptosis in vitro is DNA fragmentation and changes in plasma membrane reorganization that allows for the surface expression of phosphatidyl-D-serine and result in increased membrane permeability. The protection of cells against 4HNE by CLN using increased permeability and cell membrane expression of phosphatidyl-D-serine was investigated.
Cells were simultaneously labeled with fluorochrome-conjugated annexin V-PE (detecting PS asymmetry in the plasma membrane, an early marker of apoptosis), 7-aminoactinomycin D (7-AAD) (detecting increased membrane permeability associated with both apoptosis and necrosis). A dual laser flow cytometer (either a Becton-Dickinson FACScan) was used for the simultaneous detection of the PE-conjugated annexin V (which is excited at […]), 7-AAD (excited at 488 nm and emitting at 670 nm). Fluorochrome compatibility was excellent, although careful intralaser compensation is required for simultaneous use of PE and 7-AAD.

Nc1ncnc2c1nc(Sc1ccc(Cl)cc1)n2[C@@H]1O[C@@H]2COP(=O)(O)O[C@H]2[C@H]1O [8-(4-chlorophenylthio)-cAMP]
4HNE-induced JNK phosphorylation (JNK; pretreatment with inhibitor of JNK activation, 4HNE): prevented 4HNE-induced JNK phosphorylation

CC1=C(/C=C/C(C)=C/C=C/C(C)=C/C(=O)O)C(C)(C)CCC1 [Retinoic Acid]
DIFFERENTIATION (SH-SY5Y cells; observed Day 2): ++++ (Approximately 100% of the cells)
DIFFERENTIATION (SH-SY5Y cells; observed Day 8): + (Approximately 25% of the cells)
onset of toxicity of retinoic acid (SH-SY5Y cells; SH-SY5Y cells, retinoic acid 20 μM): started showing signs of toxicity by day 6
toxicity of retinoic acid (SH-SY5Y cells; SH-SY5Y cells, retinoic acid 40 μM): toxicity developed too rapidly

OO [H2O2]
fluorescence due to antibody binding to 4HNE-protein adducts ([1]; H2O2 100 μM): bright fluorescence

CCCCCC(O)/C=C/C=O (stereo not drawn) [4HNE]
fluorescence due to antibody binding to 4HNE-protein adducts ([1]; 4HNE 25 nM alone): bright fluorescence
levels of 4HNE-protein adducts (Western blot) [2]: significant increase
loss of GSH ([3]; 25 nM 4HNE): more than 50%
intracellular GSH levels (OPA-GSH fluorescence) ([3]; 4HNE 25 nM alone, 30 min): significant reduction
OPA-GSH-mediated fluorescence of extracellular fluid [4]: significant increase
JNK phosphorylation (JNK; 4HNE 25 nM alone): potent inducer of JNK phosphorylation
activation of p53 (p53): induced its activation
toxic effects / apoptosis (PC12 cells; 4HNE 25 nM): did not show toxic effects or induce apoptosis
apoptosis (PC12 cells; 4HNE 100 nM): Induction of apoptosis
